Columns and labels:
Thromboxane-A synthase = target: T1, Thromboxane-A synthase (Homo sapiens, UniProt P24557); test: biochemical; type: tissue-based, Platelet; conditions: platelet;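 further: enzyme inhibition assay with PGH2 supplied as substrate; in other assays of this panel Not Active means under 50% inhibition at 10 µM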
T1 sequence (P24557 whole entry): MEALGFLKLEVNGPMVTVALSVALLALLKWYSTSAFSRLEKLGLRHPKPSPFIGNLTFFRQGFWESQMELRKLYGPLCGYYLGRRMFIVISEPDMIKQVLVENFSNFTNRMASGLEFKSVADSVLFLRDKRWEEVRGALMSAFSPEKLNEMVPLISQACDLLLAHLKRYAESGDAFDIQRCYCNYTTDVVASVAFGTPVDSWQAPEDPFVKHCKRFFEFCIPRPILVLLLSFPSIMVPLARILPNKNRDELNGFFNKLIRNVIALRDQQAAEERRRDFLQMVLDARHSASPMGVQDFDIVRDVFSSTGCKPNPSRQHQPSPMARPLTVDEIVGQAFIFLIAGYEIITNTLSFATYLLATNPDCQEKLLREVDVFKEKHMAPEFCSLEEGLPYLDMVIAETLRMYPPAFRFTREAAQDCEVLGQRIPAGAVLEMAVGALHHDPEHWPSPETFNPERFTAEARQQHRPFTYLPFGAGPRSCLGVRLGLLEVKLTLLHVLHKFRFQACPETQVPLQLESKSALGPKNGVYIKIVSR

Estrogen receptor beta = Estrogen receptor beta (Homo sapiens, UniProt Q92731); conditions: sf9; further: in other assays of this panel Not Active means under 50% inhibition at 10 µM
Sequence of Estrogen receptor beta (Q92731 whole entry): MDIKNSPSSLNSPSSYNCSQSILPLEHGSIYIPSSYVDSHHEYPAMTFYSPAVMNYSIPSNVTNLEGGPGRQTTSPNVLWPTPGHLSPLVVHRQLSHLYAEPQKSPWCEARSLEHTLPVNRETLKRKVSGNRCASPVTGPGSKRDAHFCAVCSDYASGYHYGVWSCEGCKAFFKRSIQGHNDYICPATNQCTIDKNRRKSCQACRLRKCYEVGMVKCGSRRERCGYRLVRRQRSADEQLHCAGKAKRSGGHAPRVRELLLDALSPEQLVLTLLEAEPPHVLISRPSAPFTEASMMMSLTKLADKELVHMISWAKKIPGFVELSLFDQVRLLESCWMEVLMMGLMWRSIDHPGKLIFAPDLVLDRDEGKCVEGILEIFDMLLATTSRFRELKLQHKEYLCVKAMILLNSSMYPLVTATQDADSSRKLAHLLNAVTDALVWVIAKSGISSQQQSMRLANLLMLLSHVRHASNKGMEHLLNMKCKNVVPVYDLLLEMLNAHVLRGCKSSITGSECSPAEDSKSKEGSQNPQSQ

[1] = DRUGMATRIX: Glutamate, AMPA radioligand binding (ligand: [3H] AMPA); type: cell membranes, Rattus norvegicus, Wistar, Cerebral cortex, Membrane; conditions: Not Active = under 50% inhibition at 10 µM
Melanocortin receptor 4 = Melanocortin receptor 4 (Homo sapiens, UniProt P32245); type: cell membranes, Membrane; conditions: hek293; further: in other assays of this panel Not Active means under 50% inhibition at 10 µM
Sequence of Melanocortin receptor 4 (P32245 whole entry): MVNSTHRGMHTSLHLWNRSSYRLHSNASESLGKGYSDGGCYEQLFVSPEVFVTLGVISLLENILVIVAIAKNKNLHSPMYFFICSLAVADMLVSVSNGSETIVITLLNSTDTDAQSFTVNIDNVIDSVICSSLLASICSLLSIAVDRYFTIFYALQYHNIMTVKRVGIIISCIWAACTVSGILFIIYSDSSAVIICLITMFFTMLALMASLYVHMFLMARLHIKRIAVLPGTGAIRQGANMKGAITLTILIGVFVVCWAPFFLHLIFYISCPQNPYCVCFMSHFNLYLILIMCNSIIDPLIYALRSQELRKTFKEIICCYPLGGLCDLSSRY

[2] = target: Sodium-dependent dopamine transporter (Homo sapiens, UniProt Q01959); test: DRUGMATRIX: Dopamine Transporter radioligand binding (ligand: [125I] RTI-55); type: cell membranes, CHO-K1, Membrane; conditions: cho-k1; Not Active = under 50% inhibition at 10 µM
Sequence of Sodium-dependent dopamine transporter (Q01959 whole entry): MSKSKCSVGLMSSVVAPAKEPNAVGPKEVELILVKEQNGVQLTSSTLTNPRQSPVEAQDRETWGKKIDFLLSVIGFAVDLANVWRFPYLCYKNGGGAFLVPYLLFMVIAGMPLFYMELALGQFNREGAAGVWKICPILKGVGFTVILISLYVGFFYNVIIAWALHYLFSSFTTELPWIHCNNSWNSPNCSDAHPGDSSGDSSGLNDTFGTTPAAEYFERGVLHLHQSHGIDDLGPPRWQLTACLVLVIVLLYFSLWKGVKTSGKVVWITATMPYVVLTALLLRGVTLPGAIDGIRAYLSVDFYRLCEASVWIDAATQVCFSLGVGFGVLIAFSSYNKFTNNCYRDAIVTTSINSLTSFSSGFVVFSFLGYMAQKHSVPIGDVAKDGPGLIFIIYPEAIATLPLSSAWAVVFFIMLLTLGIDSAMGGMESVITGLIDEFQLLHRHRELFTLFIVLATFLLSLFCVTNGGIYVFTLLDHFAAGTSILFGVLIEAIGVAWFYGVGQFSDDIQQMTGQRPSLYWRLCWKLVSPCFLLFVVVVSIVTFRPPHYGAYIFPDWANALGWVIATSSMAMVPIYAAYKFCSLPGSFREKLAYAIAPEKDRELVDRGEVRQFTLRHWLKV

[3] = target: T2, Muscarinic acetylcholine receptor M4 (Homo sapiens, UniProt P08173); type: cell membranes, CHO-K1, Membrane; conditions: cho-k1; further: in other assays of this panel Not Active means under 50% inhibition at 10 µM
T2 sequence (P08173 whole entry): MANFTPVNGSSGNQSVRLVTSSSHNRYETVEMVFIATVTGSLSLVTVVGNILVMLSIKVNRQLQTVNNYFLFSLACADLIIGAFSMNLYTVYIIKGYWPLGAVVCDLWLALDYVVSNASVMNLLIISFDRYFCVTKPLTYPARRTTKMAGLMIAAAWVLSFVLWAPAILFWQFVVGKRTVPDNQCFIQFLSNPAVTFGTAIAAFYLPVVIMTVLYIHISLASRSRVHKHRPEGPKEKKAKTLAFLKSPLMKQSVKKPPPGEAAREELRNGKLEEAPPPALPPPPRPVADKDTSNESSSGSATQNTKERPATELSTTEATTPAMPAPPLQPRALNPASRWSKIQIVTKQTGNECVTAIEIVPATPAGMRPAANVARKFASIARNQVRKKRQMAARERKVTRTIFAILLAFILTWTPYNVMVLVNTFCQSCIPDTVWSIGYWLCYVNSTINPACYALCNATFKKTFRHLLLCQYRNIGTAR

[4] = DRUGMATRIX: Purinergic P2X radioligand binding (ligand: [3H] alpha, beta-Methylene-ATP); type: cell membranes, Oryctolagus cuniculus, New Zealand albino, Urinary bladder, Membrane; conditions: Not Active = under 50% inhibition at 10 µM
Cytochrome P450 2D6 = Cytochrome P450 2D6 (Homo sapiens, UniProt P10635); conditions: bti-tn-5b1-4; further: in other assays of this panel Not Active means under 50% inhibition at 10 µM
Sequence of Cytochrome P450 2D6 (P10635 whole entry): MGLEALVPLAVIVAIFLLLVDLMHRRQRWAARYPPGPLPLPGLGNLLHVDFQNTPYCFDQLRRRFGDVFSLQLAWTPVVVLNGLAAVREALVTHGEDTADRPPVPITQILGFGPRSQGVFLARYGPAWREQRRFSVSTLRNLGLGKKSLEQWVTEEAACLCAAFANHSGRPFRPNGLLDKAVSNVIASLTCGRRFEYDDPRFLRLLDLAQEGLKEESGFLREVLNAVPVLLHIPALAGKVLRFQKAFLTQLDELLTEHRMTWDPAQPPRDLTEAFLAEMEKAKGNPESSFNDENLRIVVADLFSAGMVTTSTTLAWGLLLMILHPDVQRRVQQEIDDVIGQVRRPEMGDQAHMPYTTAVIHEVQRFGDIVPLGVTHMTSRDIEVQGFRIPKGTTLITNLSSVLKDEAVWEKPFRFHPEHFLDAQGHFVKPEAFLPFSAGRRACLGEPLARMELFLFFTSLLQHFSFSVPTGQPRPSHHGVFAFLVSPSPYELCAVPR

[5] = DRUGMATRIX: Sodium/nucleoside co-transporter radioligand binding (ligand: nitrobenzylthioinosine); type: cell membranes, Cavia porcellus, Dunkin-Hartley, Cerebral cortex, Membrane; conditions: Not Active = under 50% inhibition at 10 µM
Adenosine receptor A2a = Adenosine receptor A2a (Homo sapiens, UniProt P29274); test: DRUGMATRIX: Adenosine A2A radioligand binding (ligand: […]); type: cell membranes, HEK293, Membrane; conditions: hek293; Not Active = under 50% inhibition at 10 µM
Sequence of Adenosine receptor A2a (P29274 whole entry): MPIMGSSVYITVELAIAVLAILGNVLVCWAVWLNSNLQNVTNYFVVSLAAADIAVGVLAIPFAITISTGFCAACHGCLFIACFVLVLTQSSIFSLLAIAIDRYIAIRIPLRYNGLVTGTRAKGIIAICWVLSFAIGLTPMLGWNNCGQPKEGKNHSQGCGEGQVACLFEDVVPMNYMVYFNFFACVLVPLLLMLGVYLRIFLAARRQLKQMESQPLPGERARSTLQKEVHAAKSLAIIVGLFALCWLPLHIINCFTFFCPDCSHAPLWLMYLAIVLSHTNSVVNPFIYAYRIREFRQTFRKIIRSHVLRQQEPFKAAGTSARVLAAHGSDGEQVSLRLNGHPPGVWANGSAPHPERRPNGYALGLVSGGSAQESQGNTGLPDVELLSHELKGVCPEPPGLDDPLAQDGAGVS

Glucocorticoid receptor = target: T3, Glucocorticoid receptor (Homo sapiens, UniProt P04150); conditions: hela s3; further: in other assays of this panel Not Active means under 50% inhibition at 10 µM
T3 sequence (P04150 whole entry): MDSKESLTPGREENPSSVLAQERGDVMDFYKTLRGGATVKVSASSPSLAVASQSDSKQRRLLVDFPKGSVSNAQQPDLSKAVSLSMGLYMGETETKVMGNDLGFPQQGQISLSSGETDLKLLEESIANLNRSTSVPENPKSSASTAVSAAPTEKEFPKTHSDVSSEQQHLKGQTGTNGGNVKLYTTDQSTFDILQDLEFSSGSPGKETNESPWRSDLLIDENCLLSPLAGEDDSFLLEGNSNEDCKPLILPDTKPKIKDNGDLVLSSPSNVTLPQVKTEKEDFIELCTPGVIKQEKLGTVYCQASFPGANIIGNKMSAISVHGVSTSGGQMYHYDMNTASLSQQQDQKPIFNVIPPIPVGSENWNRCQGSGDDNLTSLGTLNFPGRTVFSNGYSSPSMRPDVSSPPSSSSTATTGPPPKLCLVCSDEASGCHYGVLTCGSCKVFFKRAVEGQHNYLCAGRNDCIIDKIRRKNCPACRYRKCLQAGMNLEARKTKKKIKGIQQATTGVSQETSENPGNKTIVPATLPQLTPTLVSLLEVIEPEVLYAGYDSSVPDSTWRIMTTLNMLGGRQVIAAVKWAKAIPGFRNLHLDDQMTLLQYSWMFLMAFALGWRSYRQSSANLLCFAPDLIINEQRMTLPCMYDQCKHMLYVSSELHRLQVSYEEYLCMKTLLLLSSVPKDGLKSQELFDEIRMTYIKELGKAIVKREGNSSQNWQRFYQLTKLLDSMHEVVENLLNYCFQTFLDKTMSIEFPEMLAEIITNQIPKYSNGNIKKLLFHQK

D(3) dopamine receptor = D(3) dopamine receptor (Homo sapiens, UniProt P35462); test: DRUGMATRIX: Dopamine D3 radioligand binding (ligand: [3H] Spiperone); type: cell membranes, CHO, Membrane; conditions: cho
Sequence of D(3) dopamine receptor (P35462 whole entry): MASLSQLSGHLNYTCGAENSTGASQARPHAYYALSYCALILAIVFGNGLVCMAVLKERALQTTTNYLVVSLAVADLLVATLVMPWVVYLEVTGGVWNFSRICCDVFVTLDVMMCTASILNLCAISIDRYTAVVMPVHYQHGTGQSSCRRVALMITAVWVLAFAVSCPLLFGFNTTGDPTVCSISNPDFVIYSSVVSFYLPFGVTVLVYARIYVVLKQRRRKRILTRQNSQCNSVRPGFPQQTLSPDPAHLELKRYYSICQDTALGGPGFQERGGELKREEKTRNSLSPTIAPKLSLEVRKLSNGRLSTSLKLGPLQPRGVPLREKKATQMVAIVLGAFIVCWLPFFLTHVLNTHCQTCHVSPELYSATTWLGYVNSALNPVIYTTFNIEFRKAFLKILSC

[6] = target: C-C chemokine receptor type 5 (Homo sapiens, UniProt P51681); type: cell membranes, Membrane; conditions: hek293; further: in other assays of this panel Not Active means under 50% inhibition at 10 µM
Sequence of C-C chemokine receptor type 5 (P51681 whole entry): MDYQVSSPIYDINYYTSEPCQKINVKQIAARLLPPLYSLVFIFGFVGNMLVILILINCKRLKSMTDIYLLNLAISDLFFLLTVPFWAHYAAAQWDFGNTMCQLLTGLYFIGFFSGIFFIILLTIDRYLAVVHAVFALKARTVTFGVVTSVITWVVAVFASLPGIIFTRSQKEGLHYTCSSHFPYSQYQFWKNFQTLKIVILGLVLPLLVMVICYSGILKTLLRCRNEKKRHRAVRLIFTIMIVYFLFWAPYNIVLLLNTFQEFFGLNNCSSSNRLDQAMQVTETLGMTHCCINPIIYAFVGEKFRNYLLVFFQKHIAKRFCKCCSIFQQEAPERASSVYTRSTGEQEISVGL

[7] = DRUGMATRIX: Platelet-Derived Growth Factor (PDGF) radioligand binding (ligand: [125I] PDGF); type: cell-based; conditions: nih3t3; Not Active = under 50% inhibition at 10 µM

OXALIPLATIN
Not Active: IC50 (Thromboxane-A synthase) | Ki (Thromboxane-A synthase) | IC50 (Estrogen receptor beta) | Ki (Estrogen receptor beta) | IC50 [1] | Ki [1] | IC50 (Melanocortin receptor 4) | Ki (Melanocortin receptor 4) | IC50 [2] | Ki [2] | IC50 [3] | Ki [3] | IC50 [4] | Ki [4] | IC50 (Cytochrome P450 2D6) | Ki (Cytochrome P450 2D6) | IC50 [5] | Ki [5] | IC50 (Adenosine receptor A2a) | Ki (Adenosine receptor A2a) | IC50 (Glucocorticoid receptor) | Ki (Glucocorticoid receptor) | IC50 (D(3) dopamine receptor) | Ki (D(3) dopamine receptor) | IC50 [6] | Ki [6] | IC50 [7] | Ki [7]

CARBOPLATIN
Not Active: IC50 (Thromboxane-A synthase) | Ki (Thromboxane-A synthase) | IC50 (Estrogen receptor beta) | Ki (Estrogen receptor beta) | IC50 [1] | Ki [1] | IC50 (Melanocortin receptor 4) | Ki (Melanocortin receptor 4) | IC50 [2] | Ki [2] | IC50 [3] | Ki [3] | IC50 [4] | Ki [4] | IC50 (Cytochrome P450 2D6) | Ki (Cytochrome P450 2D6) | IC50 [5] | Ki [5] | IC50 (Adenosine receptor A2a) | Ki (Adenosine receptor A2a) | IC50 (Glucocorticoid receptor) | Ki (Glucocorticoid receptor) | IC50 (D(3) dopamine receptor) | Ki (D(3) dopamine receptor) | IC50 [6] | Ki [6] | IC50 [7] | Ki [7]

Nc1nc2c(ncn2COC(CO)CO)c(=O)[nH]1 [GANCICLOVIR]
Not Active: IC50 (Thromboxane-A synthase) | IC50 (Estrogen receptor beta) | IC50 [1] | Ki [1] | IC50 (Melanocortin receptor 4) | IC50 [2] | IC50 [3] | IC50 [4] | Ki [4] | IC50 (Cytochrome P450 2D6) | Ki (Cytochrome P450 2D6) | IC50 [5] | Ki [5] | IC50 (Adenosine receptor A2a) | IC50 (Glucocorticoid receptor) | IC50 (D(3) dopamine receptor) | IC50 [6] | IC50 [7] | Ki [7]

CC1(C)S[C@@H]2[C@H](NC(=O)[C@H](NC(=O)N3CCNC3=O)c3ccccc3)C(=O)N2[C@H]1C(=O)O [AZLOCILLIN]
Not Active: IC50 (Thromboxane-A synthase) | IC50 (Estrogen receptor beta) | IC50 [1] | Ki [1] | IC50 (Melanocortin receptor 4) | IC50 [2] | IC50 [3] | IC50 [4] | Ki [4] | IC50 (Cytochrome P450 2D6) | Ki (Cytochrome P450 2D6) | IC50 [5] | Ki [5] | IC50 (Adenosine receptor A2a) | IC50 (Glucocorticoid receptor) | IC50 (D(3) dopamine receptor) | IC50 [6] | IC50 [7] | Ki [7]

COc1ccc2cc(CC(=O)O)ccc2c1
Not Active: IC50 (Thromboxane-A synthase) | IC50 (Estrogen receptor beta) | IC50 [1] | Ki [1] | IC50 (Melanocortin receptor 4) | IC50 [2] | IC50 [3] | IC50 [4] | Ki [4] | IC50 (Cytochrome P450 2D6) | Ki (Cytochrome P450 2D6) | IC50 [5] | Ki [5] | IC50 (Adenosine receptor A2a) | IC50 (Glucocorticoid receptor) | IC50 (D(3) dopamine receptor) | IC50 [6] | IC50 [7] | Ki [7]

CCOC(=O)OC(C)OC1=C(C(=O)Nc2ccccn2)N(C)S(=O)(=O)c2ccccc21 (stereo not given) [AMPIROXICAM]
Not Active: IC50 (Thromboxane-A synthase) | IC50 (Estrogen receptor beta) | IC50 [1] | Ki [1] | IC50 (Melanocortin receptor 4) | IC50 [2] | IC50 [3] | IC50 [4] | Ki [4] | IC50 (Cytochrome P450 2D6) | Ki (Cytochrome P450 2D6) | IC50 [5] | Ki [5] | IC50 (Adenosine receptor A2a) | IC50 (Glucocorticoid receptor) | IC50 (D(3) dopamine receptor) | IC50 [6] | IC50 [7] | Ki [7]

COCc1c(C(C)C)nc(C(C)C)c(/C=C/[C@@H](O)C[C@@H](O)CC(=O)O)c1-c1ccc(F)cc1 [CERIVASTATIN]
Not Active: IC50 (Thromboxane-A synthase) | IC50 (Estrogen receptor beta) | IC50 [1] | Ki [1] | IC50 (Melanocortin receptor 4) | IC50 [2] | IC50 [3] | IC50 [4] | Ki [4] | IC50 (Cytochrome P450 2D6) | Ki (Cytochrome P450 2D6) | IC50 [5] | Ki [5] | IC50 (Adenosine receptor A2a) | IC50 (Glucocorticoid receptor) | IC50 (D(3) dopamine receptor) | IC50 [6] | IC50 [7] | Ki [7]

O=C1CCc2cc(OCCCCc3nnnn3C3CCCCC3)ccc2N1 [CILOSTAZOL]
Not Active: IC50 (Thromboxane-A synthase) | IC50 (Estrogen receptor beta) | IC50 [1] | Ki [1] | IC50 (Melanocortin receptor 4) | IC50 [2] | IC50 [3] | IC50 [4] | Ki [4] | IC50 (Cytochrome P450 2D6) | Ki (Cytochrome P450 2D6) | IC50 [5] | Ki [5] | IC50 (Adenosine receptor A2a) | IC50 (Glucocorticoid receptor) | IC50 (D(3) dopamine receptor) | IC50 [6] | IC50 [7] | Ki [7]

From ChEMBL document CHEMBL1909046, “DrugMatrix in vitro pharmacology data”
